Assay results: US10058612B2, “Impaired energy processing disorders and mitochondrial deficiency” (priority 2011, dated 2018)
Entries after “also recorded” stand apart in the source; their conditions may differ. Where two headings read alike, the source gives them in different places.

Legend:
[1] = system: coq null mutants (Q-less yeast); assay type: cell-based, S. cerevisiae; conditions: for viability of cells by quantitative colony counting / viability of coq mutants after fatty acid treatment: 200 μM fatty acid; for viability of cells by quantitative colony counting: 1, 2, 4 h; for viability of coq mutants after fatty acid treatment: plate dilution assay
Procedure: FIG. 3. […] Yeast coq3, coq7 and coq9 null mutants were prepared in the W303 yeast genetic background (WT). Yeast strains were grown in YPD medium (1% Bacto-yeast extract, 2% Bacto-peptone, 2% dextrose) and harvested while in log phase growth (OD600 nm=0.1-1.0). Cells were washed twice with sterile water and resuspended in phosphate buffer (0.10 M sodium phosphate, pH 6.2, 0.2% dextrose) to an OD600 nm=0.2. Samples were removed and 1:5 serial dilutions starting at 0.20 OD/ml were plated on YPD plate medium, to provide a zero time untreated control (shown in top left panel). The designated fatty acids were added to 200 μM final concentration to 20 ml of yeast in phosphate buffer. At 2 h, 4 h, and 16 h samples were removed, 1:5 serial dilutions prepared, and spotted onto YPD plate medium. Pictures were taken after 2 days of growth at 30° C.
FIG. 4. […] The fatty acid sensitive assay was performed as described in FIG. 3, except that 100 μl aliquots were removed at 1, 2, and 4 h and, following dilution, spread onto YPD plates. Pictures were taken after 2 to 2.5 days, and the number of colonies counted. Yeast strains include Wild type (circles), atp2 (triangles), or coq3 (squares). Fatty acid treatments include oleic C18:1 (solid line), linolenic, C18:3, n-3 (dashed line) or 11,11,14,14-D4-linolenic, C18:3, n-3, (dotted line).
Q-less yeast (coq mutants) provide an ideal system to assess in vivo autoxidation of fatty acids. Coenzyme Q (ubiquinone or Q) serves as a small lipophilic antioxidant as well as an electron shuttle in the respiratory chain of the mitochondrial inner membrane.
A plate dilution assay can be used to assess PUFA sensitivity. This assay can be performed by spotting serial five-fold dilutions of aliquots onto YPD plate media (FIG. 3). The sensitivity of the different strains can be observed by visual inspection of the density of cells in each spot.

[2] = system: coq null mutants (Q-less yeast); conditions: cited from earlier work
[3] = system: Q-less coq3 yeast strains; assay: Yeast incubation with different ratios of LA to D2-LA, plate dilution; assay type: cell-based
Procedure: FIG. 9. […] Wild-type, yeast Q-less coq3, or respiratory deficient cor1 null mutants were incubated in the presence of 200 μM of LA and D2-LA at different ratios of PUFAs. Serial dilutions (1:5) starting at 0.2 OD/ml were spotted on YPD solid plate medium. A zero-time untreated control is shown on the top left. Growth at 30° C.
Wild-type, yeast Q-less coq3, or respiratory deficient cor1 null mutants were incubated in the presence of 200 μM of LA and D2-LA at different ratios of PUFAs, as indicated in FIG. 9. Serial dilutions (1:5) starting at 0.2 OD/ml were spotted on YPD solid plate medium. […] Growth was at 30° C.

[4] = system: m-Fibroblasts (Frda^L3/L-; h-I54F); assay: Friedreich's ataxia model: viability of FAC/BSO-treated fibroblasts (Promega Cell-Glow); assay type: cell-based; conditions: for cell survival on co-administration with idebenone: compared with individual administration of idebenone, D-LA, or D-ALA
Procedure: m-Fibroblasts (Frda^L3/L-; h-I54F) have both frataxin alleles deleted and over-express a mutated form of human frataxin (I154F) that is associated with the disease. […] Cells were plated in 48 well-plates and treated with FAC and BSO for 48 h and 24 h respectively. […] At the end of the experiment, cell viability was assessed by the Promega Cell-Glow kit and measured in Arbitrary Luminescence Units (ALU) also expressed as % survival (FIG. 22). In FIG. 22, NT stands for not treated; F stands for iron ammonium citrate; B stands for buthionine sulphoximine; CC stands for carrier control DMSO (dimethylsulfoxide) used to bring the final concentration in the assay to 0.5%; and IDB stands for idebenone.
Likewise, an investigation was undertaken to measure the effects of co-administering idebenone with D-PUFAs (FIG. 23).
Additional experiments were also performed to study the effects of co-administering different D-PUFAs (data not shown). I154F cells were treated with either 100% D-LA, 75% D-LA/25% D-ALA, 50% D-LA/50% D-ALA, and 100% D-ALA.

[5] = system: Q-less coq3 yeast strains; conditions: 200 μM total ALA and D4-Lnn
Procedure: FIG. 10. […] Serial dilutions (1:5) starting at 0.2 OD/ml were spotted on YPD solid plate medium. Growth at 30° C.
Serial dilutions (1:5) starting at 0.2 OD/ml were spotted on YPD solid plate medium. Growth was at 30° C.

[6] = Incorporation into animal tissues by isotope ratio mass-spectrometry; conditions: 0.01-100 mg/kg diet; brain, liver, heart, lung
Procedure: Brain, liver, heart, and lung tissue are removed, and homogenate samples from control mice and test compound-treated mice are analyzed for deuterium content as described for Example 7 above.

[7] = Study in patients suffering from Huntington's disease; conditions: in vivo
Procedure: (§1) Patients with schizophrenia and free of antipsychotic medication are selected for the study. […] Each week, patients are evaluated for frequency and duration of schizophrenic episodes. Additionally, blood samples are taken each week and biomarkers of oxidative stress, such as the biomarkers described above, are measured.
A similar study can be performed with patients suffering from Huntington's disease.

[8] = Study in patients with schizophrenia; assay type: in vivo; conditions: 0.01-100 mg/kg daily over six months
Procedure: as §1

[9] = Study in patients suffering from Bipolar Disorder; conditions: in vivo
Procedure: as §1
A similar study can be performed with patients suffering from Bipolar Disorder.

[10] = Kinetics of O2 consumption during AMVN-initiated oxidation (glass capillary microvolumeter); assay type: physicochemical; conditions: for rate of oxidation, ROX: 0.71 M in chlorobenzene, 40 mM AMVN
Procedure: FIG. 7. Kinetics of O2 consumption accompanied the oxidation of 0.71 M LA (plots 1 and 2) and 0.71 M D2-LA (plot 3) in chlorobenzene initiated by 40 mM AMVN at 37° C. Plot 2-0.23 mM HPMC was added to 0.71 M LA.
The kinetics of oxygen consumption during the oxidation of LA and D2-LA was studied with a glass capillary microvolumeter (FIG. 7). The rate of oxidation, ROX, was measured as a slope of [O2] traces. The rate of initiation, RIN, was determined by the inhibitor method with HPMC (“6-hydroxy-2,2,5,7,8-pentamethylbenzochroman”) as a reference inhibitor. RIN was calculated from the induction period of inhibited oxidation, tIND: RIN=2·[HPMC]/tIND. […] See Carpenter, “Determination of Organic Reaction Mechanisms” (John Wiley & Sons, 1984), p. 89.

[11] = design: species or system WT mice; conditions: both, mouse, in vivo, 90 days
From the text: WT mice were housed at 12 animals (males separate from females) per cage and fed for 90 days ad libitum (typically, 5-6 g/day) on the AIN 93 diet, as pellets, with 6% total fat. […] The animals were sacrificed, organs harvested and stored at low temperature prior to analysis without the use of preservation agents.

Wild-type yeast cells = assay: C11-Bodipy 581/591 lipid peroxidation in copper-stressed yeast; assay type: cell-based; conditions: 200 μM fatty acid 2 hours, then 50 μM CuSO4 60 min
Procedure: Wild-type yeast cells were treated as described above except yeast were treated with 200 μM of the designated fatty acid for 2 hours, washed with sterile water, and were either not treated (triangles) or treated with 50 μM CuSO4 (squares) at room temperature. After 60 min of copper treatment cells were treated with 8 μM C11-Bodipy 581/591 for 30 min at room temperature. Four 100 μl aliquots were plated in a 96-well plate and the fluorescence was measured.

[12] = Kinetics of oxidation of mixtures of D2-LA and LA; assay type: physicochemical
Procedure: FIG. 8. Dependence of the rate of oxidation of the mixture of LA and D2-LA in chlorobenzene solution on mixture composition. Conditions: [LA]+[11,11-d2-LA]=0.775 M; [AMVN]=0.0217 M; 37° C. RIN=(1.10±0.08)×10^−7 M/sec.
To simulate the likely in vivo conditions, the kinetics of the oxidation of the mixtures of D2-LA and LA were studied (FIG. 8). In the experiments, the concentration of LA plus 11,11-d2-LA was 0.775 M; the concentration of AMVN was 0.0217 M; and the reactions were carried out at 37° C. The results afforded an RIN of 1.10±0.08×10^−7 M/sec.

[13] = system: wild-type (strain W303-1B) cells; conditions: four hour treatment; cited from earlier work

In the case of `CCCCCCCC/C=C\CCCCCCCC(=O)O` [oleic acid, reference compound], the “viability of cells by quantitative colony counting” value [1] is given as “similar” and the “sensitivity of Q-less yeast to the fatty acid” value [2] is given as “behave the same as the wild-type parental strain”.
For `[2H]C(/C=C\CCCCC)/C=C\CCCCCCCC(=O)O` (centres unmarked) [11,11-D,H-LA, [11-^2H]-linoleic acid], the cell viability ([3]; after 3 hours of treatment, data not shown) was “no detectable loss in cell viability”.
With D-ALA the “cell survival on co-administration with idebenone” value [4] was “increased cell survival”.
In the case of “11,11,14,14-Tetradeutero-cis,cis,cis-octadeca-8,12,15-trienoic acid [D4-ALA]”, the “minimal amount sufficient to cancel the toxicity of ALA” value [5] is reported as 15-20%, the “presence in tissues and cells (deuterium content)” value [6] is reported as “expected to be found in the tissues and cells analyzed” and the “viability of cells by quantitative colony counting” value [1] is reported as “similar”. The “viability of coq mutants after fatty acid treatment” value (shortened to “viability of coq mutants”) ([1]; listed as D4-linolenic acid) was “resistant to PUFA-mediated cell killing; also recorded: not killed”, the “levels of biomarkers associated with oxidative stress” value (“levels of biomarkers associated” below) [7] was “reduce neuronal cell death and the levels of biomarkers associated with oxidative stress” and the “levels of biomarkers associated” value [8] was “reduce the levels of biomarkers associated with oxidative stress”. For the same compound, the “levels of biomarkers associated” value [9] was “reduce the levels of biomarkers associated with oxidative stress”.
In the case of `CCCCC/C=C\C/C=C\CCCCCCCC(=O)O` [LA, cis,cis-9,12-Octadecadienoic acid, reference compound], the “length of the kinetic chain, ν=ROX/RIN” value [10] is reported as 38±3, the “rate of oxidation, ROX” value ([10]; 37° C.) is reported as 6.1e-06 M/s and the oxidizability ([10]; n=5) is reported as 0.0215±0.008 M^−0.5s^−0.5.
In the case of `[2H]C([2H])(/C=C\CCCCC)/C=C\CCCCCCCC(=O)O` [D2-LA, 11,11-Dideutero-cis,cis-octadeca-9,12-dienoic acid], the “effect of addition of HPMC on oxidation” value [10] is reported as “did not result in the decrease in ROX and the appearance of any detectable induction period”, the “length of the kinetic chain, ν=ROX/RIN” value [10] is reported as “≈ 1.1” and the “rate of oxidation, ROX” value ([10]; 37° C.) is reported as 1.8e-07 M/s. The “kinetic isotope effect (KIE) from ROX for LA and D2-LA” value ([10]; chlorobenzene, 37° C.) was “≈ 35”, the “total fat being deuterated, liver” value [11] was “about 32%” and the “levels of biomarkers associated” value [7] was “reduce neuronal cell death and the levels of biomarkers associated with oxidative stress”. The “levels of lipid peroxidation” value (Wild-type yeast cells) was “lower levels of lipid peroxidation similar to yeast not treated with PUFA”, the “minimal amount sufficient to cancel the toxicity of LA” value ([3]; 200 μM total LA and D2-LA) was 10-15% and the “levels of biomarkers associated” value [8] was “reduce the levels of biomarkers associated with oxidative stress”. For the same compound, the “levels of biomarkers associated” value [9] was “reduce the levels of biomarkers associated with oxidative stress”, the “protection of non-deuterated LA against autoxidation” value ([12]; mixture with LA) was “‘protects’ the non-deuterated LA against autoxidation” and the protection against autoxidation ([12]; mixture with non-deuterated methyl linoleate, data not shown) was “qualititatively similar effect”.
In the case of `[2H]C([2H])(/C=C\C/C=C\CC)C/C=C\CCCCCCC(=O)O` [11, 11-D2-linolenic acid, 11,11-Dideutero-cis,cis,cis-octadeca-8,12,15-trienoic acid], the “viability of coq mutants” value [1] is reported as “comparable protection”.
In the case of `CCCCC/C=C\C/C=C\C/C=C\C/C=C\CCCC(=O)O` [arachidonic acid], the “sensitivity of Q-less yeast to the fatty acid” value [2] is listed as “hypersensitive”.
For `[2H]C([2H])(/C=C\CCCCC)/C=C\CCCCCCCC(=O)O` [D-LA], the “cell viability (ALU, % survival)” value ([4]; FAC 48 h, BSO 24 h, PUFA added 2 hours after BSO) was “dose-dependent rescue of viability” and the “cell survival on co-administration with idebenone” value [4] was “increased cell survival”.
For `[2H]C([2H])(/C=C\CC)/C=C\CC/C=C\CCCCCCC(=O)O` [14, 14-D2-linolenic acid, 14,14-Dideutero-cis,cis,cis-octadeca-8,12,15-trienoic acid], the “viability of coq mutants” value [1] was “comparable protection”.
For `CC/C=C\C/C=C\C/C=C\CCCCCCCC(=O)O` [ALA, cis,cis,cis-9,12,15-Octadecatrienoic acid, reference compound], the “wild-type cells remaining viable” value [13] is given as 70%, the “viability of coq mutants” value [1] is given as “dramatic loss of viability” and the “reduction of viability of the coq mutants” value ([1]; treatment for 4 h, colony counting) is given as “more than 100 fold”. The “viable Q-less (coq2, coq3, and coq5) yeast mutants” value ([2]; four hour treatment) was “Less than 1%”.
